Positions of bridges follow the written chain, without caps; N, C: chain ends. Residues, ends and D or L forms follow the SMILES beside them.
Key:
Type in all cases: binding
human IgG1 = target: T1, human IgG1 (Homo sapiens, UniProt P01857); details: Table 9; immobilized peptide, 5.0 mg/ml resin load
T1 construct: all human subtypes derived from myeloma patients; purchased Calbiochem 400120; host or cells: myeloma patients
Procedure, shortened: (§1)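 Steps: dilute IgG in PBST or TBST; incubate with immobilized peptide 1-1.5 h, RT; collect unbound by centrifugation; measure A280; wash three times; elute with 0.1 M sodium bicarbonate pH 8.5 and/or 0.1 M sodium citrate pH 4.0 for 30-60 min and quantitate.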

bovine IgG = details: Table 11; unfractionated IgG
Procedure, shortened: (§2)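 Percent bound = control mass minus unbound mass, with unbound IgG read at A280 after 1–1.5 h room-temperature incubation with the peptide resin in PBST pH 7.2 or TBST pH 7.5. Bound IgG was eluted 30–60 min with 0.1 M citrate pH 4.0 and/or bicarbonate pH 8.5. Recovery is given as percent of total load.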

mouse IgG = details: Table 11; unfractionated IgG
Procedure, shortened: as §2

human IgG2 = target: T2, human IgG2 (Homo sapiens, UniProt P01859); details: Table 9; immobilized peptide, 5.0 mg/ml resin load
T2 construct: all human subtypes derived from myeloma patients; purchased Calbiochem 400122; host or cells: myeloma patients
T2 sequence (P01859 1-326 isoform P01859-1): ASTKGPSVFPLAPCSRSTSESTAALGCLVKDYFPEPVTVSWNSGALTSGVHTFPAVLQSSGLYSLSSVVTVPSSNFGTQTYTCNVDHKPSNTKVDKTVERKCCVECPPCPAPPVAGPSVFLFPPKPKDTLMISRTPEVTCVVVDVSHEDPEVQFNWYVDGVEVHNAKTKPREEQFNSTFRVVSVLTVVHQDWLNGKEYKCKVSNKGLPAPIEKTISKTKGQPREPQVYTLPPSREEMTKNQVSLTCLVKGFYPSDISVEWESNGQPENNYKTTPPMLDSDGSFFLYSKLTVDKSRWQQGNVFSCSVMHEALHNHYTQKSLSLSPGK
Procedure, shortened: (§3)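 Read-out is A280 of unbound IgG (1.4 mg/ml extinction coefficient), with percent bound derived against non-filtered or negative controls. Targets were incubated with immobilized peptides in PBST or TBST for 1-1.5 h at room temperature. Hydrolyzed Sepharose and immobilized Protein A serve as negative and positive controls.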

human IgG = details: Table 11; unfractionated IgG
Procedure, shortened: as §2

goat IgG = details: Table 11; unfractionated IgG
Procedure, shortened: as §2

IgG4 = IgG4 (Homo sapiens, UniProt P01861); design: all human subtypes derived from myeloma patients; purchased Calbiochem 400126; host or cells: myeloma patients; details: Table 9; immobilized peptide, 5.0 mg/ml resin load
IgG4, sequence (P01861 1-327 isoform P01861-1): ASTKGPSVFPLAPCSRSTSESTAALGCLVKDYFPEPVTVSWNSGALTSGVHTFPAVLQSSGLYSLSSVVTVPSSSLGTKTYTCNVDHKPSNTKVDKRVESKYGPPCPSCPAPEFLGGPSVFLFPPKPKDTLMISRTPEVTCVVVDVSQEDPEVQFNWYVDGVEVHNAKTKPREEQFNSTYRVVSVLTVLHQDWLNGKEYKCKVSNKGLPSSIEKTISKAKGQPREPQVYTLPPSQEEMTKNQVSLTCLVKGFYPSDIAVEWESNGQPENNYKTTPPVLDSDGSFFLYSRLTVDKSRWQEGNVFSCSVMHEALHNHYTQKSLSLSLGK
Procedure, shortened: as §3

IgG3 = IgG3 (Homo sapiens, UniProt P01860); design: all human subtypes derived from myeloma patients; purchased Calbiochem 400124; host or cells: myeloma patients; details: Table 9; immobilized peptide, 5.0 mg/ml resin load
IgG3, sequence (P01860 1-377 isoform P01860-1): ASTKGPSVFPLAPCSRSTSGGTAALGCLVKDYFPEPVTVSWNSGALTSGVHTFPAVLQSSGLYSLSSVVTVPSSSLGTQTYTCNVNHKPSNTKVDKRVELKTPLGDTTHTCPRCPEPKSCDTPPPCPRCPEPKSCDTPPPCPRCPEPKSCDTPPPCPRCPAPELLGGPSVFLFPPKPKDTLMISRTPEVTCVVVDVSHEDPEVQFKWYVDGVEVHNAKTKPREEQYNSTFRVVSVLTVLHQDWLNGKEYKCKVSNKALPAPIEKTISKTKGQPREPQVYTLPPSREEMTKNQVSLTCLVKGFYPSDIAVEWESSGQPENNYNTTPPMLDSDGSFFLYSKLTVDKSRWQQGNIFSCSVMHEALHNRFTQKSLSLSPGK
Procedure, shortened: as §1

T1 sequence (P01857 1-330 isoform P01857-1): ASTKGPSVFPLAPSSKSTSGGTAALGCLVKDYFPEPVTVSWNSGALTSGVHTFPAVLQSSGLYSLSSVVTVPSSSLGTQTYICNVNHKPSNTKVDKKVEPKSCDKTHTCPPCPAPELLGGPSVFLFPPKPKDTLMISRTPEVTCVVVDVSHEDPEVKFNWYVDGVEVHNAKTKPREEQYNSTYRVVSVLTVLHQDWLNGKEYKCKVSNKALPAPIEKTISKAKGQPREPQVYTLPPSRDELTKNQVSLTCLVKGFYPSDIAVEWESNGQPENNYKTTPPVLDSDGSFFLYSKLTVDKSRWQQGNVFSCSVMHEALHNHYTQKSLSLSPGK

Structure (SMILES): CC[C@H](C)[C@@H]1NC(=O)[C@H](CCCCN)NC(=O)[C@@H](NC(=O)[C@H](Cc2c[nH]c3ccccc23)NC(=O)[C@H](Cc2ccc(O)cc2)NC(=O)[C@H](CO)NC(=O)CNC(=O)[C@H](C)NC(C)=O)CSSC[C@@H](C(=O)N2CCC[C@H]2C(=O)N[C@@H](CCC(N)=O)C(=O)N[C@@H](CO)C(=O)N2CCC[C@H]2C(=O)NCC(=O)N2CCC[C@H]2C(=O)N[C@@H](CCC(=O)O)C(=O)NCC(=O)NCC(=O)NCC(=O)N[C@@H](CCCCN)C(N)=O)NC(=O)[C@H](C(C)C)NC(=O)[C@H](CC(=O)O)NC(=O)[C@H](Cc2c[nH]c3ccccc23)NC1=O [DX392] (Ac-AGSYWCKIWDVCPQSPGPEGGGK-NH2; disulfide 6-12 (inferred))
- % IgG Capture - Batch Binding, Human IgG1 (human IgG1): 13%
- % IgG Capture - Batch Binding, Bovine IgG (bovine IgG): 0%
- % IgG Capture - Batch Binding, Mouse IgG (mouse IgG): 0%
- % IgG Capture - Batch Binding, Human IgG2 (human IgG2): 15%
- % IgG Capture - Batch Binding, Human IgG (human IgG): 4%
- % IgG Capture - Batch Binding, Goat IgG (goat IgG): 0%
- % IgG Capture - Batch Binding, Human IgG4 (IgG4): 9%
- % IgG Capture - Batch Binding, Human IgG3 (IgG3): 76%
